Like-named read-outs stand apart in the source and are kept apart here.
Experiments:
[1] = Incubation of [14C]DCDQ with dog liver microsomes; assay type: in vitro ADME, beagle dogs
Experimental: [^14C]DCDQ was mixed with non-radiolabeled DCDQ (1:3 or 1:5) in the incubations. Microsomal incubations consisted of [^14C]DCDQ, magnesium chloride (10 mM) and liver microsomes incubated in 0.5 mL of 0.1 M potassium phosphate buffer, pH 7.4. [^14C]DCDQ (20 μL) in water was added to the incubation tubes containing buffer, magnesium chloride solution and microsomes. After mixing, the tubes were pre-incubated for 2 minutes in a shaking water bath at 37° C. The reactions were initiated by the addition of UDPGA or the NADPH regenerating system. UDPGA was added to incubations as a 50 μL aliquot of a 20 mM solution in water, to give a final concentration of 2 mM. An NADPH regenerating system (30 μL) was added to incubations to evaluate CYP450-mediated metabolism. The NADPH regenerating system consisted of glucose-6-phosphate (2 mg/mL), glucose-6-phosphate dehydrogenase (0.8 units/mL) and NADP^+ (2 mg/mL). Control incubations were conducted under the same conditions, but without the NADPH generating system, UDPGA or microsomes. All incubations were performed in duplicate. Incubations were stopped by the addition of 0.5 mL ice-cold methanol. Samples were vortex-mixed. Denatured proteins were separated by centrifugation at 4300 rpm and 4° C. for 10 minutes (Model T21 super centrifuge, Sorvall). The protein pellets were extracted with 0.5 mL of methanol. The supernatant was combined for each sample, mixed and evaporated to a volume of about 0.3 mL under a nitrogen stream in a Zymark TurboVap LV evaporator (Caliper Life Science, Hopkinton, Mass.). The concentrated sample was centrifuged and aliquots were radioassayed and analyzed by HPLC. This method recovered an average of 92.1% of the radioactivity from the reaction mixture.
To evaluate species differences in cytochrome P450- and UGT-mediated metabolism, [^14C]DCDQ was incubated for 20 minutes with 0.5 mg/mL liver microsomal proteins from mice, rats, dogs or humans in the presence of the NADPH regenerating system or UDPGA. The assay conditions were the same as described above, and DCDQ concentrations were 12 μM and 56 μM for cytochrome P450- and UGT-mediated metabolism, respectively.
A Waters model 2690 HPLC system (Waters Corp., Milford, Mass.) with a built-in autosampler was used for analysis. Separations were accomplished on a Phenomenex Luna C18(2) column (2×150 mm, 5 μm) (Phenomenex, Torrance, Calif.) coupled with a filter (4×2 mm) cartridge. A variable wavelength UV detector set to monitor 250 nm and Flo-One β Model A525 radioactivity flow detector (Perkin Elmer) with a 250 μL LQTR flow cell were used for data acquisition. The flow rate of Ultima Flow M scintillation fluid was 1 mL/min, providing a mixing ratio of scintillation cocktail to mobile phase of 5:1. […]

[2] = Dog urinary excretion and metabolite profiles after oral capsule of [14C]DCDQ; assay type: in vivo, beagle dogs
Experimental: Blood samples were collected from the jugular vein at 2, 4, 8, 24 and 48 hour after dose administration into tubes containing potassium EDTA as the anticoagulant and then placed on ice. Aliquots of 50 μL were removed for combustion and determination of radioactivity content. Plasma was immediately obtained from the remaining blood by centrifugation at 4° C. Urine samples were collected into tubes on dry ice at intervals of 0-8, 8-24 and 24-48 hour post-dose. Fecal samples were collected at intervals of 0-8, 8-24 and 24-48 hour post-dose at room temperature, and were homogenized. The biological specimens were stored at approximately −70° C. until analysis.
(§1) For plasma profiles, a TopCount NXT radiometric microplate reader (Perkin Elmer) was used to analyze the radioactivity in collected HPLC fractions. The limit of detection by TopCount was about 1 ng equivalent/mL. A Flo-One β Model A525 radioactivity detector (Perkin Elmer) with a 250 μL LQTR flow cell was used to acquire data for urine and fecal samples. The flow rate of Ultima Flow M scintillation fluid was 1 mL/min, providing a mixing ratio of scintillation cocktail to mobile phase of 5:1. The limits of detection by Flo-One detector were about 200 ng equivalents/mL for urine and 12 ng equivalents/g for feces.
Urine was analyzed for radioactivity concentration and analyzed by HPLC with radioactivity flow detection for metabolite profiles by direct injection to the HPLC column. LC/MS analyses for metabolite identification were also carried out with urine samples.
(§2) A Waters model 2690 HPLC system (Waters Corp., Milford, Mass.) with a built-in autosampler was used for analysis. Separations were accomplished on a Phenomenex Luna C18(2) column (150×2.0 mm, 5 μm) (Phenomenex, Torrance, Calif.). The sample chamber of the autosampler was maintained at 4° C., while the column was at ambient temperature of about 20° C. A variable wavelength UV detector set to monitor 250 nm and a Flo-One β Model A525 radioactivity detector were used for data acquisition. The HPLC mobile phase consisted of 10 mM ammonium acetate, pH 4.5 (A) and acetonitrile (B), and was delivered at 0.2 mL/min. Chromatographic condition A was used for dose analysis, while condition B was used for analysis of urine and plasma, brain and fecal extracts.

[3] = Dog plasma metabolite profiles after single 15 mg/kg oral capsule of [14C]DCDQ; assay type: in vivo, beagle dogs
Experimental: as §1
Plasma samples were analyzed for metabolite profiles by HPLC. Aliquots of plasma were mixed with two volumes of cold methanol containing 0.1% trifluoroacetic acid (TFA), placed on ice for about 2 minutes and then centrifuged. The supernatant fluid was transferred to a clean tube and evaporated at 22° C. under nitrogen in a Zymark TurboVap LV (Caliper Life Sciences, Hopkinton, Mass.) to a volume of about 0.3 mL. The residue was centrifuged, the supernatant volume measured and extraction efficiency determined by analysis of duplicate 20 μL aliquots for radioactivity. A 200 μL aliquot of the supernatant was injected onto the HPLC column and the effluent was collected at 20 second intervals into 96-well Lumaplates (Perkin Elmer). The plates were dried overnight in an oven at 40° C. and analyzed by a TopCount. Plasma extracts were also analyzed by LC/MS.
as §2

[4] = NADPH regenerating system, 12 μM DCDQ, 20 min
[5] = 0-8 hr, dog no. not printed (dog 1 by footnote a)
[6] = male, beagle, dog, plasma, oral, 15 mg/kg, 2 hr, dog 2, read-out: Estimated plasma concentration in dogs
[7] = male, beagle, dog, plasma, oral, 15 mg/kg, 4 hr, dog 1, read-out: Estimated plasma concentration in dogs
[8] = male, beagle, dog, plasma, oral, 15 mg/kg, 4 hr, dog 2, read-out: Estimated plasma concentration in dogs
[9] = male, beagle, dog, plasma, oral, 15 mg/kg, 24 hr, dog 2, read-out: Estimated plasma concentration in dogs
[10] = male, beagle, dog, plasma, oral, 15 mg/kg, 8 hr, dog 1, read-out: Estimated plasma concentration in dogs

For `OC1[C@@H]2CCC[C@@H]2c2cccc3c2N1CCNC3` (stereo partly drawn) [Metabolite M2, hydroxy DCDQ], the “metabolite detected in microsomal incubation” value (“metabolite detected” for short) [1, 4] was “observed”, the “Chromatographic distribution of radioactivity in dog urine” value [2, 5] was 10% and the “Chromatographic distribution of radioactivity in dog urine” value ([2]; 8-24 hr, Mean) was 24%. The “Chromatographic distribution of radioactivity in dog urine” value ([2]; 8-24 hr, dog 1) was 21%, the “Chromatographic distribution of radioactivity in dog urine” value ([2]; 8-24 hr, dog 2) was 26% and the “Chromatographic distribution of radioactivity in dog urine” value ([2]; 8-24 hr, dog 3) was 26%. The “Chromatographic distribution of radioactivity in dog urine” value ([2]; 24-48 hr, Mean) was 22%, the “Chromatographic distribution of radioactivity in dog urine” value ([2]; 24-48 hr, dog 1) was 25% and the “Chromatographic distribution of radioactivity in dog urine” value ([2]; 24-48 hr, dog 2) was 18%. The “Chromatographic distribution of radioactivity in dog urine” value ([2]; 24-48 hr, dog 3) was 22%, the “Chromatographic distribution of radioactivity in dog urine” value ([2]; 24-48 hr, dog 4) was 21% and the “Estimated plasma concentration in dogs” value ([3]; 2 hr, dog 1) was “BQL^b”. The “Chromatographic distribution of radioactivity in dog plasma” value ([3]; 2 hr, dog 2) was 8.0%, the “Chromatographic distribution of radioactivity in dog plasma” value ([3]; 4 hr, dog 1) was 6.6% and the “Chromatographic distribution of radioactivity in dog plasma” value ([3]; 4 hr, dog 2) was 12%. For the same compound, the “Estimated plasma concentration in dogs” value ([3]; 8 hr, dog 1) was “BQL”, the “Estimated plasma concentration in dogs” value ([3]; 8 hr, dog 2) was “BQL” and the “Estimated plasma concentration in dogs” value ([3]; 8 hr, dog 3) was “BQL”. The “Estimated plasma concentration in dogs” value ([3]; 24 hr, dog 1) was “BQL”, the “Chromatographic distribution of radioactivity in dog plasma” value ([3]; 24 hr, dog 2) was 5.0% and the “Chromatographic distribution of radioactivity in dog plasma” value ([3]; 24 hr, dog 3) was 7.0%. The “Estimated plasma concentration in dogs” value ([3]; 48 hr, dog 1) was “BQL”, the “Estimated plasma concentration in dogs” value ([3]; 48 hr, dog 2) was “BQL” and the “Estimated plasma concentration in dogs” value ([3]; 48 hr, dog 3) was “BQL”. For the same compound, the concentration at 2 h [3, 6] was 99.5 ng/mL, the concentration at 4 h [3, 7] was 33.1 ng/mL and the concentration at 4 h [3, 8] was 192 ng/mL. It also gave a concentration at 24 h [3, 9] of 55.3 ng/mL and a concentration at 24 h ([3]; male, beagle, dog, plasma, oral, 15 mg/kg, 24 hr, dog 3, read-out: Estimated plasma concentration in dogs) of 135 ng/mL.
For `[O-][N+]12CCN=Cc3cccc(c31)[C@H]1CCC[C@H]1C2` (stereo partly drawn) [Metabolite M5, DCDQ imine N-oxide], the “metabolite detected” value [1, 4] was “detected”, the “Chromatographic distribution of radioactivity in dog urine” value [2, 5] was 5.9% and the “Chromatographic distribution of radioactivity in dog urine” value ([2]; 24-48 hr, dog 1) was 8.5%. For the same compound, the “Chromatographic distribution of radioactivity in dog urine” value ([2]; 24-48 hr, dog 2) was 4.0%, the “Chromatographic distribution of radioactivity in dog plasma” value ([3]; 2 hr, dog 1) was 12% and the “Chromatographic distribution of radioactivity in dog plasma” value ([3]; 2 hr, dog 2) was 2.9%. The “Chromatographic distribution of radioactivity in dog plasma” value ([3]; 4 hr, dog 1) was 6.6%, the “Chromatographic distribution of radioactivity in dog plasma” value ([3]; 4 hr, dog 2) was 5.3% and the “Chromatographic distribution of radioactivity in dog plasma” value ([3]; 8 hr, dog 1) was 4.0%. The “Estimated plasma concentration in dogs” value ([3]; 8 hr, dog 2) was “BQL”, the “Estimated plasma concentration in dogs” value ([3]; 8 hr, dog 3) was “BQL” and the “Estimated plasma concentration in dogs” value ([3]; 24 hr, dog 1) was “BQL”. The “Estimated plasma concentration in dogs” value ([3]; 24 hr, dog 2) was “BQL”, the “Estimated plasma concentration in dogs” value ([3]; 24 hr, dog 3) was “BQL” and the “Estimated plasma concentration in dogs” value ([3]; 48 hr, dog 1) was “BQL”. For the same compound, the “Chromatographic distribution of radioactivity in dog plasma” value ([3]; 48 hr, dog 2) was 2.8%, the “Estimated plasma concentration in dogs” value ([3]; 48 hr, dog 3) was “BQL” and the concentration at 2 h ([3]; male, beagle, dog, plasma, oral, 15 mg/kg, 2 hr, dog 1, read-out: Estimated plasma concentration in dogs) was 43.1 ng/mL. For the same compound, the concentration at 2 h [3, 6] was 36.4 ng/mL, the concentration at 4 h [3, 7] was 33.1 ng/mL and the concentration at 4 h [3, 8] was 86.6 ng/mL. For the same compound, the concentration at 8 h [3, 10] was 21.7 ng/mL and the concentration at 48 h ([3]; male, beagle, dog, plasma, oral, 15 mg/kg, 48 hr, dog 2, read-out: Estimated plasma concentration in dogs) was 18.9 ng/mL.
For `O=C(O)[C@H]1O[C@@H](OC(=O)N2CCN3C[C@@H]4CCC[C@@H]4c4cccc(c43)C2)[C@H](O)[C@@H](O)[C@@H]1O` [Metabolite M6, carbamoyl glucuronide of DCDQ], the “metabolite detected” value ([1]; UDPGA, 56 μM DCDQ) was “detected”, the “Chromatographic distribution of radioactivity in dog urine” value [2, 5] was 13% and the “Chromatographic distribution of radioactivity in dog urine” value ([2]; 8-24 hr, Mean) was 5.8%. The “Chromatographic distribution of radioactivity in dog urine” value ([2]; 8-24 hr, dog 1) was 6.1%, the “Chromatographic distribution of radioactivity in dog urine” value ([2]; 8-24 hr, dog 2) was 7.6% and the “Chromatographic distribution of radioactivity in dog urine” value ([2]; 8-24 hr, dog 3) was 3.6%. The “Chromatographic distribution of radioactivity in dog urine” value ([2]; 24-48 hr, Mean) was 4.7%, the “Chromatographic distribution of radioactivity in dog urine” value ([2]; 24-48 hr, dog 1) was 5.8% and the “Chromatographic distribution of radioactivity in dog urine” value ([2]; 24-48 hr, dog 2) was 3.5%. For the same compound, the “Chromatographic distribution of radioactivity in dog urine” value ([2]; 24-48 hr, dog 3) was 4.3%, the “Chromatographic distribution of radioactivity in dog urine” value ([2]; 24-48 hr, dog 4) was 5.9% and the “Estimated plasma concentration in dogs” value ([3]; 2 hr, dog 1) was “BQL”. For the same compound, the “Chromatographic distribution of radioactivity in dog plasma” value ([3]; 2 hr, dog 2) was 19%, the “Estimated plasma concentration in dogs” value ([3]; 4 hr, dog 1) was “BQL” and the “Chromatographic distribution of radioactivity in dog plasma” value ([3]; 4 hr, dog 2) was 13%. The “Chromatographic distribution of radioactivity in dog plasma” value ([3]; 8 hr, dog 1) was 7.0%, the “Estimated plasma concentration in dogs” value ([3]; 8 hr, dog 2) was “BQL” and the “Estimated plasma concentration in dogs” value ([3]; 8 hr, dog 3) was “BQL”. The “Chromatographic distribution of radioactivity in dog plasma” value ([3]; 24 hr, dog 1) was 17%, the “Chromatographic distribution of radioactivity in dog plasma” value ([3]; 24 hr, dog 2) was 5.6% and the “Estimated plasma concentration in dogs” value ([3]; 24 hr, dog 3) was “BQL”. For the same compound, the “Estimated plasma concentration in dogs” value ([3]; 48 hr, dog 1) was “BQL”, the “Estimated plasma concentration in dogs” value ([3]; 48 hr, dog 2) was “BQL” and the “Estimated plasma concentration in dogs” value ([3]; 48 hr, dog 3) was “BQL”. It also gave a concentration at 2 h [3, 6] of 239 ng/mL, a concentration at 4 h [3, 8] of 215 ng/mL and a concentration at 8 h [3, 10] of 37.9 ng/mL. For the same compound, the concentration at 24 h ([3]; male, beagle, dog, plasma, oral, 15 mg/kg, 24 hr, dog 1, read-out: Estimated plasma concentration in dogs) was 258 ng/mL and the concentration at 24 h [3, 9] was 62.1 ng/mL.

Reference: patent US20060111305A1, “Metabolites of certain [1,4]diazepino[6,7,1-ij]quinoline derivatives and methods of preparation and use thereof” (Wyeth, priority 2004, published 2006)
